Assays:
[1] = system: Mus musculus; test: compound was tested in vivo for hypoglycemic activity expressed as Glucose lowering relative to positive control in 6-8 week old C57BL/6J ob/ob mouse at 10 uM dose.; format: functional
[2] = system: Mus musculus; test: compound was tested in vivo for hypoglycemic activity expressed as Glucose lowering relative to positive control in 6-8 week old C57BL/6J ob/ob mouse at 1 uM dose.; format: functional
[3] = system: Mus musculus; test: compound was tested in vivo for hypoglycemic activity expressed as Glucose lowering relative to positive control in 6-8 week old C57BL/6J ob/ob mouse at 5 uM dose.; format: functional
[4] = species on record: Rattus norvegicus; test: Inhibition of gluconeogenesis in rat; format: functional
[5] = system: 3T3-L1; test: In vitro measurements 2-Deoxyglucose (2DG) uptake in vehicle treated 3T3-L1 adipocytes at 100 uM dose.; format: functional
[6] = system: L6; test: compound was evaluated for their acute effects in vitro by measuring 2-Deoxyglucose (2DG) uptake in vehicle treated L6 […] at 60 uM dose.; format: functional
[7] = system: Mus musculus; test: In vivo hypoglycemic activity expressed as glucose lowering relative to positive control in 6-8 week old C57BL/6J ob/ob mouse at 10 mg/kg; format: functional
[8] = system: Mus musculus; test: In vivo hypoglycemic activity expressed as glucose lowering relative to positive control in 6-8 week old C57BL/6J ob/ob mouse at 5 mg/kg.; format: functional
[9] = system: Mus musculus; test: Compound was tested in vivo for hypoglycemic activity expressed as Glucose lowering relative to positive control in 6-8 week old C57BL/6J ob/ob mouse at 50 mg/kg; format: functional
[10] = system: 3T3-L1; test: Acute effects in vitro by measuring 2-deoxyglucose (2DG) uptake in vehicle treated 3T3-L1 adipocytes at 10 uM dose.; format: functional
[11] = system: 3T3-L1; test: Acute effects in vitro by measuring 2-deoxyglucose (2DG) uptake in vehicle treated 3T3-L1 adipocytes at 30 uM dose.; format: functional
[12] = system: 3T3-L1; test: In vitro by measurements of 2-Deoxyglucose (2DG) uptake in vehicle treated 3T3-L1 adipocytes at 3 uM dose.; format: functional
[13] = system: L6; test: compound was evaluated for their acute effects in vitro by measuring 2-Deoxyglucose (2DG) uptake in vehicle treated L6 […] at 100 uM dose.; format: functional
[14] = system: L6; test: compound was evaluated for their acute effects in vitro by measuring 2-Deoxyglucose (2DG) uptake in vehicle treated L6 […] at 30 uM dose.; format: functional
[15] = system: Mus musculus; test: compound was tested in vivo for hypoglycemic activity expressed as Glucose lowering relative to positive control in 6-8 week old C57BL/6J ob/ob mouse at 25 mg/kg; format: functional
[16] = system: Mus musculus; test: compound was tested in vivo for hypoglycemic activity expressed as Glucose lowering relative to positive control in 6-8 week old C57BL/6J ob/ob mouse at 50 mg/kg; format: functional
[17] = system: 3T3-L1; test: compound was evaluated for their acute effects in vitro by measuring 2-Deoxyglucose (2DG) uptake in vehicle treated 3T3-L1 adipocytes at 300 uM dose.; format: functional
[18] = system: 3T3-L1; test: compound was evaluated for their acute effects in vitro by measuring 2-Deoxyglucose (2DG) uptake in vehicle treated 3T3-L1 adipocytes at concentration of 10 micro M; format: functional
[19] = system: 3T3-L1; test: compound was evaluated for their acute effects in vitro by measuring 2-Deoxyglucose (2DG) uptake in vehicle treated 3T3-L1 adipocytes at concentration of 3 micro M; format: functional
[20] = system: 3T3-L1; test: compound was evaluated for their acute effects in vitro by measuring 2-Deoxyglucose (2DG) uptake in vehicle treated 3T3-L1 adipocytes at concentration of 30 micro M; format: functional
[21] = system: Mus musculus; test: In vivo hypoglycemic activity expressed as glucose lowering relative to positive control in 6-8 week old C57BL/6J ob/ob mouse at 1 mg/kg.; format: functional
[22] = system: Mus musculus; test: compound was tested in vivo for hypoglycemic activity in 6-8 week old C57BL/6J ob/ob mouse at 0.5 mg/kg; format: functional
[23] = species on record: Rattus norvegicus; test: Percentage inhibition of Glucagon-stimulated Gluconeogenesis in Isolated Rat Hepatocytes in vitro; format: functional, Hepatocyte
[24] = species on record: Rattus norvegicus; test: Percentage inhibition of basal stimulated Gluconeogenesis in Isolated Rat Hepatocytes in vitro; format: functional, Hepatocyte
[25] = system: L6; test: compound was evaluated for their acute effects in vitro by measuring 2-Deoxyglucose (2DG) uptake in vehicle treated L6 […] at 10 uM dose.; format: functional
[26] = system: L6; test: compound was evaluated for their acute effects in vitro by measuring 2-Deoxyglucose (2DG) uptake in vehicle treated L6 […] at 3 uM dose.; format: functional
[27] = system: 3T3-L1; test: In vitro measurements of 2-Deoxyglucose (2DG) uptake in vehicle treated 3T3-L1 adipocytes at 60 uM dose.; format: functional
[28] = system: Mus musculus; test: compound was tested in vivo for hypoglycemic activity in 6-8 week old C57BL/6J ob/ob mouse at 5 mg/kg; format: functional
[29] = system: Mus musculus; test: compound was tested in vivo for hypoglycemic activity expressed as Glucose lowering relative to positive control in 6-8 week old C57BL/6J ob/ob mouse at 0.1 mg/kg; format: functional
[30] = system: Mus musculus; test: compound was tested in vivo for hypoglycemic activity expressed as Glucose lowering relative to positive control in 6-8 week old C57BL/6J ob/ob mouse at 0.5 mg/kg; format: functional
[31] = system: 3T3-L1; test: compound was evaluated for their acute effects in vitro by measuring 2-Deoxyglucose (2DG) uptake in vehicle treated 3T3-L1 adipocytes at 0.3 uM dose.; format: functional
[32] = system: 3T3-L1; test: compound was evaluated for their acute effects in vitro by measuring 2-Deoxyglucose (2DG) uptake in vehicle treated 3T3-L1 adipocytes at 1 uM dose.; format: functional
[33] = system: L6; test: Compound was evaluated for their acute effects in vitro by measuring 2-Deoxyglucose (2DG) uptake in vehicle treated L6 […] at 100 uM dose.; format: functional
[34] = system: L6; test: Compound was evaluated for their acute effects in vitro by measuring 2-Deoxyglucose (2DG) uptake in vehicle treated L6 […] at 10 uM dose.; format: functional
[35] = system: L6; test: Compound was evaluated for their acute effects in vitro by measuring 2-Deoxyglucose (2DG) uptake in vehicle treated L6 […] at 1 uM dose.; format: functional
[36] = system: L6; test: Compound was evaluated for their acute effects in vitro by measuring 2-Deoxyglucose (2DG) uptake in vehicle treated L6 […] at 3 uM dose.; format: functional
[37] = system: L6; test: Compound was evaluated for their acute effects in vitro by measuring 2-Deoxyglucose (2DG) uptake in vehicle treated L6 […] at 60 uM dose.; format: functional
[38] = system: Mus musculus; test: Basal glucose(mg/dl) level when compound given at 5 mg/kg/day in pair feeding study with ob/ob mice; format: functional
[39] = system: Mus musculus; test: Food intake (g/5 mice/ 5 days) when compound given at 5 mg/kg/day in pair feeding study with ob/ob mice; format: functional
[40] = system: Mus musculus; test: Glucose(mg/dl) level, on day 5 when compound given at 5 mg/kg/day in pair feeding study with ob/ob mice; format: functional
[41] = system: Mus musculus; test: Net body weight delta (g)when compound given at 5 mg/kg/day in pair feeding study with ob/ob mice; format: functional
[42] = system: Mus musculus; test: compound was tested in vivo for hypoglycemic activity expressed as Glucose lowering relative to positive control in 6-8 week old C57BL/6J ob/ob mouse at 20 mg/kg; format: functional
[43] = species on record: Rattus norvegicus; test: Percentage inhibition of Glucagon stimulated Gluconeogenesis in Isolated Rat Hepatocytes in vitro; format: functional, Hepatocyte
[44] = system: L6; test: Compound was evaluated for their acute effects in vitro by measuring 2-Deoxyglucose (2DG) uptake in vehicle treated L6 […] at 30 uM dose.; format: functional
[45] = system: 3T3-L1; test: compound was evaluated for their acute effects in vitro by measuring 2-Deoxyglucose (2DG) uptake in vehicle treated 3T3-L1 adipocytes at 0.5 uM dose.; format: functional
[46] = system: Mus musculus; test: compound was tested in vivo for hypoglycemic activity expressed as Glucose lowering relative to positive control in 6-8 week old C57BL/6J ob/ob mouse at 2.5 mg/kg; format: functional
[47] = Rattus norvegicus, read-out: ED50

## CC(C)c1ccc(OC(C)(Cc2cccc(Cl)c2)C(=O)[O-])cc1.[Na+] (stereo unspecified)
[1]
  Hypoglycemic activity: 101%
[2]
  Hypoglycemic activity: 47%
[3]
  Hypoglycemic activity: 32%
[4]; [47]
  ED50: 5 mg/kg

## CC(C)c1ccc(OC(Cc2ccc(C(F)(F)F)cc2)C(=O)O)cc1 (stereo unspecified)
[5]
  Basal uptake: 605%
[6]
  Basal uptake: 104%
[7]
  Hypoglycemic activity: 42%
[8]
  Hypoglycemic activity: 30%
[4]; [47]
  ED50: 10 mg/kg
[9]
  Hypoglycemic activity: 74%

## Cc1ccc(S(=O)(=O)C(CCCCCc2ccc(Cl)cc2)C(=O)O)cc1 (stereo unspecified)
[5]
  Basal uptake: 250%
[10]
  Basal uptake: 93%
[11]
  Basal uptake: 100%
[12]
  Basal uptake: 114%
[6]
  Basal uptake: 124%
[13]
  Basal uptake: 134%
[14]
  Basal uptake: 88%
[7]
  Hypoglycemic activity: 22%
[15]
  Hypoglycemic activity: 60%
[16]
  Hypoglycemic activity: 71%
[4]; [47]
  ED50: 25 mg/kg

## CCc1cccc(CC(C)(Oc2ccc(C(C)C)cc2)C(=O)[O-])c1.[Na+] (stereo unspecified)
[10]
  Basal uptake: 127%
[17]
  Basal uptake: 117%
[12]
  Basal uptake: 102%
[18]
  Basal uptake: 194%
[19]
  Basal uptake: 131%
[20]
  Basal uptake: 246%
[7]
  Hypoglycemic activity: 147%
[21]
  Hypoglycemic activity: 76%
[8]
  Hypoglycemic activity: 101%
[22]
  Hypoglycemic: <0
[4]; [47]
  ED50: 0.5 mg/kg

## CC(C)c1ccc(OC(Cc2ccc(Cl)cc2)C(=O)O)cc1 (stereo unspecified)
[5]
  Basal uptake: 150%
[7]
  Hypoglycemic activity: 58%
[16]
  Hypoglycemic activity: 82%
[8]
  Hypoglycemic activity: 26%
[4]; [47]
  ED50: 10 mg/kg
[23]
  Inhibition: 20%
[24]
  Inhibition: 32%

## CC(C)c1ccc(OC(C)(Cc2cccc(C(F)(F)F)c2)C(=O)[O-])cc1.[Na+] (stereo unspecified)
[25]
  Basal uptake: 104%
[14]
  Basal uptake: 121%
[26]
  Basal uptake: 129%
[7]
  Hypoglycemic activity: 64%
[21]
  Hypoglycemic activity: 44%
[8]
  Hypoglycemic activity: 46%
[4]; [47]
  ED50: 5 mg/kg

## CCc1ccc(CC(C)(Oc2ccc(C(C)C)cc2)C(=O)[O-])cc1.[Na+] (stereo unspecified)
[27]
  Basal uptake: 109%
[18]
  Basal uptake: 108%
[19]
  Basal uptake: 94%
[20]
  Basal uptake: 216%
[28]
  Glucose lowering relative to positive control: 109%
[29]
  Hypoglycemic activity: 55%
[30]
  Hypoglycemic activity: 76%
[7]
  Hypoglycemic activity: 119%
[21]
  Hypoglycemic activity: 86%
[4]; [47]
  ED50: 0.1 mg/kg

## CC(C)c1ccc(OC(C)(Cc2ccc(Cl)cc2)C(=O)O)cc1 (stereo in doubt; 26)
[31]
  Basal uptake: 106%
[5]
  Basal uptake: 220%
[10]
  Basal uptake: 94%
[32]
  Basal uptake: 86%
[11]
  Basal uptake: 100%
[12]
  Basal uptake: 98%
[27]
  Basal uptake: 110%
[18]
  Basal uptake: 200%
[19]
  Basal uptake: 139%
[20]
  Basal uptake: 291%
[33]
  Basal uptake: 88%
[34]
  Basal uptake: 96%
[35]
  Basal uptake: 101%
[36]
  Basal uptake: 97%
[37]
  Basal uptake: 108%
[38]
  Basal glucose: 341 mg/dL
[39]
  Food intake: 132 g 5mice-1 5days-1
[40]
  Glucose: 223 mg/dL
[41]
  Net body weight delta: 0.4 g
[7]
  Hypoglycemic activity: 111%
[21]; 1 mg/kg
  Hypoglycemic activity: 50%
[42]
  Hypoglycemic activity: 104%
[15]
  Hypoglycemic activity: 90%
[16]
  Hypoglycemic activity: 83%
[8]; 5 mg/kg
  Hypoglycemic activity: 77%
[4]; [47]
  ED50: 1 mg/kg
[43]
  Inhibition: 22%
[24]
  Inhibition: 36%
[44]
  Basal uptake: 87%

## CC(C)c1ccc(OC(C)(C(=O)O)C(C)c2ccc(Cl)cc2)cc1 (stereo in doubt; 84)
[45]
  Basal uptake: 98%
[10]
  Basal uptake: 131%
[32]
  Basal uptake: 99%
[11]
  Basal uptake: 128%
[12]
  Basal uptake: 102%
[27]
  Basal uptake: 214%
[7]; 10 mg/kg
  Hypoglycemic activity: 142%
[21]
  Hypoglycemic activity: <0%
[46]
  Hypoglycemic activity: 62%
[8]
  Hypoglycemic activity: 77%
[4]
  ED50: 2.5 mg/kg

From ChEMBL document CHEMBL1129417, “Glucose transport-enhancing and hypoglycemic activity of 2-methyl-2-phenoxy-3-phenylpropanoic acids” (1996)
